One may read the bioavailability as the share of a dose that reaches the circulation, judged against a reference dose that is usually intravenous. Low values mean poor availability, high ones good availability.

Where two headings read alike, the source gives them in different places.

From US20160038474A1, “COMPOSITIONS AND METHODS FOR THE MODULATION OF HEMOGLOBIN (S)” (GLOBAL BLOOD THERAPEUTICS, INC., priority 2013, published 2016) come the findings set out here.

The series can be described thus: Rat pharmacokinetics and blood/plasma partitioning (Example 1). Type of series: in vivo, Rats (Sprague-Dawley). Conditions: for blood plasma ratio: whole blood and plasma, oral, 10 mg/kg. As to the method: This experiment was established and used in order to assess the pharmacokinetic (PK) properties of the compounds.
Sample collection and data analysis: Rats (Sprague-Dawley, male, 8-12[…] weeks old) were dosed with one of three compounds corresponding to compound 12, compound 22 or compound 23. The rats received oral (10 mg/kg) or intravenous (1 mg/kg) doses of the compound. Rats were fasted overnight before the experiments and provided with food after the 2 hour sampling time point.
Blood samples were collected at different time points. Blood was anti-coagulated by 3.2% TSC (trisodium citrate) and a portion was separated into plasma fraction by centrifugation and removal of blood cells. Plasma and lysed blood samples were anal) zed for drug concentration using LC-MS/MS. PK parameters were calculated by non compartmental analysis of the concentration-time profiles using WinNonLin software (Pharsight, Mountain View, Calif.). Apparent elimination half-life (t1/2) values were calculated as ln(2)/k. Area under the concentration-time curve (AUC) values were estimated using the linear trapezoidal method. AUClast values were calculated from the dosing time to the last measurable concentration. AUCinf values were calculated as the sum of the corresponding AUClast and the ratio of the last detectable concentration divided by k. Plasma clearance (Cl) is calculated from Dose/AUCinf. Volume of distribution at steady state (Vss) is calculated from Mean Residence Timeinf×Clss. Maximum concentration (Cmax) and time to Cmax (Tmax) was recorded as observed. The blood/plasma partitioning ratio was calculated at each experimental time point.

Take `CC(C)n1nccc1-c1ncccc1COc1cccc(O)c1C=O` [Compound 12, 2-hydroxy-6-[[2-(2-propan-2-ylpyrazol-3-yl)pyridin-3-yl]methoxy] benzaldehyde]: the “level of compound in blood versus plasma, overall exposure” value (dosed orally) is 55 fold. For the same molecule, the “relative proportion in blood (as compared to plasma) at peak concentration (Cmax)” value (dosed orally) was 21 fold. Where the note is “male, Sprague-Dawley, in vivo, oral 10 mg/kg or intravenous 1 mg/kg, read-out: Vss”, the Vd was determined as 0.14 L/kg. This molecule also showed a bioavailability (male, Sprague-Dawley, in vivo, oral 10 mg/kg, intravenous 1 mg/kg) of 68.8%. Under “male, Sprague-Dawley, plasma, oral 10 mg/kg or intravenous 1 mg/kg”, this molecule gave a clearance of 0.11 mL/min/kg. In addition, the blood plasma ratio is, setting by setting: (male, Sprague-Dawley, read-out: Blood/plasma (Ratio of exposure AUCINF)) 55; (male, Sprague-Dawley, read-out: Blood/plasma (Ratio of peak concentration)) 21. The “red blood cell/plasma ratio at the peak concentration” value (ratio to 1 into the erythrocytes) was 70.
